The values below come from patent US20250034169A1, “NOVEL PYRIMIDOPYRIDINE COMPOUND, PHARMACEUTICAL COMPOSITION THEREOF, AND USE THEREOF” (SUNSHINE LAKE PHARMA CO., LTD., priority 2021, published 2025).

pIC50: −log10 of the molar value. Where two headings read alike, the source gives them in different places.

One data set addresses KRAS G12D-GTP & SOS1 (Homo sapiens (Human), UniProt P01116, G12D). As to the kind of experiment: KRAS G12D/SOS1 binding experiment (HTRF). Particulars: competitive binding.
The target in another data set is KRAS G12D-GTP & cRAF (Homo sapiens (Human), UniProt P01116, G12D). The data set is described as follows: KRAS G12D/cRAF binding experiment (HTRF). Particulars: competitive binding.
Another data set concerns intracellular pERK. The data set is described as follows: Inhibitory effect on intracellular pERK, In-Cell Western, AGS cells. The data set is classed as cell-based. As to conditions: Homo sapiens, read-out: Inhibitory effect on intracellular pERK, IC50.
A short description of data set [1]: Stability in mouse liver microsomes. Type of data set: in vitro ADME. As to conditions: mouse, pH 7.4; for CLHep / CLin vivo / ER: 1 μM; for half-life at 1 μM / microsomal CLint at 1 μM: microsomes. The method, then: (§1) Objective: To evaluate the stability of the compounds of the present invention in human and mouse liver microsomes by LC-MS/MS.
(§2) The ratio of the sample peak area to the internal standard peak area was obtained by LC/MS/MS, and the content of the compounds at 0 min was regarded as 100%, and the relative content of the compounds at each time point was calculated. The half-life of the compound was calculated by plotting the “relative content of the compound” against the “incubation time”, and the intrinsic clearance was calculated, in which the half-life and intrinsic clearance of the compound in human and mouse liver microsomes were determined in Table 3 and Table 4, respectively.

The nature of data set [2]: Stability in human liver microsomes. The data set is classed as in vitro ADME. As to conditions: human, pH 7.4; for CLHep / ER: 1 μM; for half-life at 1 μM / microsomal CLint at 1 μM: microsomes. The procedure:
as §1, §2

[3] abbreviates: AGS cells, 3 h incubation, In-Cell Western.

KRAS G12D-GTP & SOS1, sequence (P01116-2 other isoform, or with tags, fused parts or gaps G12D): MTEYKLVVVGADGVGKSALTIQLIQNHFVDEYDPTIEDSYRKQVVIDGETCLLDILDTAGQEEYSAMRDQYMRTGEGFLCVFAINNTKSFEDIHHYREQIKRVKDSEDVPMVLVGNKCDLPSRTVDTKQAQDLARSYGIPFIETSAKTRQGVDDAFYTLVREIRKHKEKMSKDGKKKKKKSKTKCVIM
KRAS G12D-GTP & cRAF, sequence (P01116-2 other isoform, or with tags, fused parts or gaps G12D): as above

`C#Cc1c(F)ccc2cccc(-c3nc(C#C)c4c(N5CC6CCC(C5)N6)nc(OC[C@@]56CCCN5C[C@H](F)C6)nc4c3F)c12` [Compound 84]: the negative logarithm of the IC50 (pIC50) on KRAS G12D-GTP & SOS1 was 7.53; at KRAS G12D-GTP & cRAF, 7.68.
As to `C#CCOc1nc(-c2cc(O)cc3ccc(F)c(C#C)c23)c(F)c2nc(OC[C@@]34CCCN3C[C@H](F)C4)nc(N3CC4CCC(C3)N4)c12` [Compound 91], the pIC50 with intracellular pERK (setting [3]) is 9.52.
Turning to `C#Cc1c(F)ccc2cc(O)cc(-c3nc(C#C)c4c(N5C[C@@H]6C[C@H]5CN6)nc(OC[C@@]56CCCN5C[C@H](F)C6)nc4c3F)c12` [Compound 44], the pIC50 on KRAS G12D-GTP & SOS1 is 7.53; on KRAS G12D-GTP & cRAF, 7.82.
Taken in the same sequence, the figures for `C#Cc1c(F)ccc2cc(O)cc(-c3nc(C#CCCC#N)c4c(N5CC6CCC(C5)N6)nc(OC[C@@]56CCCN5C[C@H](F)C6)nc4c3F)c12` [Compound 31] were 7.46 and 7.61.
On to `C#Cc1c(F)ccc2cc(O)cc(-c3nc(C#CCCC(C)C)c4c(N5CC6CCC(C5)N6)nc(OC[C@@]56CCCN5C[C@H](F)C6)nc4c3F)c12` [Compound 30], for which the negative logarithm of the IC50 (pIC50) on KRAS G12D-GTP & SOS1 was 7.87; in the data set on intracellular pERK (setting [3]) it was 9.10; at KRAS G12D-GTP & cRAF it was 8.06.
In data set [1], `C#Cc1c(F)ccc2cc(O)cc(-c3nc(C#C)c4c(N5CC6CCC(C5)N6)nc(OCC56CCCN5CCC6)nc4c3F)c12` [Compound 54] showed a CLHep of 31.9 mL/min/kg, a CLin vivo of 23.5 mL/min/kg, an ER of 0.26 and a half-life at 1 μM of 2.86 h. In data set [1], this compound showed a microsomal CLint at 1 μM of 8.1 µL/min/mg. Further, in data set [2], the CLHep is 5.6 mL/min/kg, the ER is listed as 0.21, the half-life at 1 μM was 5.2 h and the microsomal CLint at 1 μM was found to be 4.4 µL/min/mg.
Take `C#Cc1c(F)ccc2cc(O)cc(-c3nc(C#CCC)c4c(N5CC6CCC(C5)N6)nc(OC[C@@]56CCCN5C[C@H](F)C6)nc4c3F)c12` [Compound 24]: the pIC50 on KRAS G12D-GTP & SOS1 was 7.82; in the data set with intracellular pERK (AGS, 3 h), 9.70; at KRAS G12D-GTP & cRAF it was 7.87.
Regarding `C#Cc1c(F)ccc2cc(O)cc(-c3nc(C#C)c4c(N5CC6CCC(C5)N6)nc(OC[C@@H]5CCCN5C)nc4c3F)c12` [Compound 51], the pIC50 on KRAS G12D-GTP & SOS1 is 7.68; in the data set with intracellular pERK (setting [3]), 8.92; on KRAS G12D-GTP & cRAF, 7.95.
Turning to `C#Cc1c(F)ccc2cc(O)cc(-c3nc(C#CC4CCCC4)c4c(N5CC6CCC(C5)N6)nc(OC[C@@]56CCCN5C[C@H](F)C6)nc4c3F)c12` [Compound 28], the pIC50 is 7.94 on KRAS G12D-GTP & SOS1 and 7.95 on KRAS G12D-GTP & cRAF.
Take `C#Cc1nc(-c2cc(O)cc3ccc(F)c(CC)c23)c(F)c2nc(OC[C@@]34CCCN3C[C@H](F)C4)nc(N3CC4CCC(C3)N4)c12` [Compound 65]: the negative logarithm of the IC50 (pIC50) was 7.73 at KRAS G12D-GTP & SOS1; 9.40 in the data set on intracellular pERK (AGS, 3 h); 8.00 on KRAS G12D-GTP & cRAF.
In the case of `C#Cc1c(F)ccc2cc(O)cc(-c3nc(C#C)c4c(N5CC6CCC(C5)N6)nc(OCCC(F)(F)F)nc4c3F)c12` [Compound 55], the pIC50 was 7.83 on KRAS G12D-GTP & SOS1 and 8.01 on KRAS G12D-GTP & cRAF.
`C#Cc1nc(-c2cc(O)cc(Cl)c2C2CC2)c(F)c2nc(OC[C@@]34CCCN3C[C@H](F)C4)nc(N3CC4CCC(C3)N4)c12` [Compound 78]: the negative-log IC50 (pIC50) on KRAS G12D-GTP & SOS1 is 7.76; on KRAS G12D-GTP & cRAF, 8.12.
Turning to `C#Cc1nc(-c2cc(O)cc3ccccc23)c(F)c2nc(OC[C@@]34CCCN3C[C@H](F)C4)nc(N3CC4CCC(C3)N4)c12` [Compound 66], the pIC50 was 7.93 at KRAS G12D-GTP & SOS1 and 8.23 on KRAS G12D-GTP & cRAF.
As to `C#Cc1c(F)ccc2cc(O)cc(-c3nc(C#CCOC)c4c(N5CC6CCC(C5)N6)nc(OC[C@@]56CCCN5C[C@H](F)C6)nc4c3F)c12` [Compound 25], the negative-log IC50 (pIC50) was 7.77 on KRAS G12D-GTP & SOS1; 9.10 with intracellular pERK (AGS, 3 h); 7.82 at KRAS G12D-GTP & cRAF.
Take `C#Cc1c(F)ccc2cc(O)cc(-c3nc(C#CCC(C)C)c4c(N5CC6CCC(C5)N6)nc(OC[C@@]56CCCN5C[C@H](F)C6)nc4c3F)c12` [Compound 29]: the pIC50 at KRAS G12D-GTP & SOS1 was 7.80; with intracellular pERK (setting [3]), 9.00; on KRAS G12D-GTP & cRAF it was 7.83.
As for `C#Cc1c(F)ccc2cc(O)cc(-c3nc(C(=O)OCC)c4c(N5CC6CCC(C5)N6)nc(OC[C@@]56CCCN5C[C@H](F)C6)nc4c3F)c12` [Compound 13], the values for the pIC50 at KRAS G12D-GTP & SOS1 and on KRAS G12D-GTP & cRAF were 7.95 and 8.29, respectively.
The corresponding values for `[2H]C([2H])([2H])c1nc(-c2cc(O)cc3ccc(F)c(C#C)c23)c(F)c2nc(OC[C@@]34CCCN3C[C@H](F)C4)nc(N3CC4CCC(C3)N4)c12` [Compound 11] are 7.70 and 8.04.
Consider `C#Cc1c(F)ccc2cc(O)cc(-c3nc(OCCC(F)(F)F)c4c(N5CC6CCC(C5)N6)nc(OC[C@@]56CCCN5C[C@H](F)C6)nc4c3F)c12` [Compound 9], for which the negative logarithm of the IC50 (pIC50) at KRAS G12D-GTP & SOS1 was 7.90; with intracellular pERK (setting [3]), 9.22; at KRAS G12D-GTP & cRAF, 8.06.
`C#Cc1c(F)ccc2cc(O)cc(-c3nc(OCCOC)c4c(N5CC6CCC(C5)N6)nc(OC[C@@]56CCCN5C[C@H](F)C6)nc4c3F)c12` [Compound 10]: the pIC50 on KRAS G12D-GTP & SOS1 was 7.86; at KRAS G12D-GTP & cRAF it was 8.06.
Taken in the same sequence, the figures for `C#Cc1c(F)ccc2cc(O)cc(-c3nc(C#C)c4c(N5CC6CCC(C5)N6)nc(OC[C@H]5CCCN5C)nc4c3F)c12` [Compound 50] were 7.44 and 7.72.
Take `C#Cc1c(F)ccc2cc(O)cc(-c3nc(C#C)c4c(N5CCN[C@@H](C)C5)nc(OC[C@@]56CCCN5C[C@H](F)C6)nc4c3F)c12` [Compound 43]: the negative-log IC50 (pIC50) on KRAS G12D-GTP & SOS1 is 7.62; at KRAS G12D-GTP & cRAF it was 7.79.
For the compound `C#Cc1nc(-c2cc(O)cc3cccc(F)c23)c(F)c2nc(OC[C@@]34CCCN3C[C@H](F)C4)nc(N3CC4CCC(C3)N4)c12` [Compound 68], the negative logarithm of the IC50 (pIC50) at KRAS G12D-GTP & SOS1 was 7.78; in the data set on intracellular pERK (setting [3]), 9.10; at KRAS G12D-GTP & cRAF, 8.19.
`C#Cc1c(F)ccc2cc(O)cc(-c3nc(COC)c4c(N5CC6CCC(C5)N6)nc(OC[C@@]56CCCN5C[C@H](F)C6)nc4c3F)c12` [Compound 26]: the negative-log IC50 (pIC50) in the data set on intracellular pERK (setting [3]) is 9.40.
For `C#Cc1c(F)ccc2cc(O)cc(-c3nc(C#C)c4c(N5CC6CCC(C5)N6)nc(OCC5CCCC5)nc4c3F)c12` [Compound 56], the pIC50 at KRAS G12D-GTP & SOS1 is 7.80; at KRAS G12D-GTP & cRAF, 7.73.
Taken in the same sequence, the figures for `C#Cc1c(F)ccc2cc(O)cc(-c3nc(C#C)c4c(N5CC6CC(C5)N6)nc(OC[C@@]56CCCN5C[C@H](F)C6)nc4c3F)c12` [Compound 41] were 7.50 and 7.66.
With `C#Cc1c(F)ccc2cc(O)cc(-c3nc(C#CCCCC)c4c(N5CC6CCC(C5)N6)nc(OC[C@@]56CCCN5C[C@H](F)C6)nc4c3F)c12` [Compound 39], in data set [1], the CLHep is 53.4 mL/min/kg, the CLin vivo came out at 33.5 mL/min/kg, the ER was determined as 0.37 and the half-life at 1 μM stood at 1.7 h. The compound further had a microsomal CLint at 1 μM in data set [1] of 13.5 µL/min/mg. Further, in data set [2], the CLHep stood at 19.0 mL/min/kg, the ER came to 0.48, the half-life at 1 μM was 1.52 h and the microsomal CLint at 1 μM turned out to be 15.2 µL/min/mg. Besides, in the data set with intracellular pERK (setting [3]), the negative-log IC50 (pIC50) is 9.30.
Take `C#Cc1c(F)ccc2cc(O)cc(-c3nc(C#C)c4c(N5CC6CCC(C5)N6)nc(OCC5(CN(C)C)CC5)nc4c3F)c12` [Compound 52]: the pIC50 on KRAS G12D-GTP & SOS1 was 7.82; in the data set on intracellular pERK (setting [3]), 8.82; at KRAS G12D-GTP & cRAF, 8.11.
In the case of `C#Cc1c(F)ccc2cc(O)cc(-c3nc(C#C)c4c(N5CC6CCC(C5)N6)nc(OCC5(CN6CCOCC6)CC5)nc4c3F)c12` [Compound 53], the negative logarithm of the IC50 (pIC50) at KRAS G12D-GTP & SOS1 is 7.84; in the data set with intracellular pERK (setting [3]), 9.40; on KRAS G12D-GTP & cRAF it was 8.37.
With `C#Cc1c(F)ccc2cc(O)cc(-c3nc(COC)c4c(N5CC6CCC(C5)N6)nc(OC[C@@]56CCCN5C[C@H](F)C6)nc4c3F)c12` [Compound 12], the negative-log IC50 (pIC50) is 7.99 on KRAS G12D-GTP & SOS1 and 8.01 on KRAS G12D-GTP & cRAF.
